Like-named read-outs stand apart in the source and are kept apart here.
How the values were obtained:
MAP4K4 (h) = MAP4K4 (h) (Homo sapiens (Human), UniProt O95819); assay: MAP4K4 in vitro kinase assay (radiometric); format: biochemical; conditions: read-out: MAP4K4_IC50
Protocol: (§1) (specific activity and concentration as required). The reaction is initiated by the addition of the Mg/ATP mix. After incubation for 40 minutes at room temperature, the reaction is stopped by the addition of phosphoric acid to a concentration of 0.5%.

TNIK = TNIK (Homo sapiens (Human), UniProt Q9UKE5); assay: TNIK enzymatic assay (radiometric kinase inhibition); format: biochemical
Chain of TNIK (Q9UKE5 whole entry): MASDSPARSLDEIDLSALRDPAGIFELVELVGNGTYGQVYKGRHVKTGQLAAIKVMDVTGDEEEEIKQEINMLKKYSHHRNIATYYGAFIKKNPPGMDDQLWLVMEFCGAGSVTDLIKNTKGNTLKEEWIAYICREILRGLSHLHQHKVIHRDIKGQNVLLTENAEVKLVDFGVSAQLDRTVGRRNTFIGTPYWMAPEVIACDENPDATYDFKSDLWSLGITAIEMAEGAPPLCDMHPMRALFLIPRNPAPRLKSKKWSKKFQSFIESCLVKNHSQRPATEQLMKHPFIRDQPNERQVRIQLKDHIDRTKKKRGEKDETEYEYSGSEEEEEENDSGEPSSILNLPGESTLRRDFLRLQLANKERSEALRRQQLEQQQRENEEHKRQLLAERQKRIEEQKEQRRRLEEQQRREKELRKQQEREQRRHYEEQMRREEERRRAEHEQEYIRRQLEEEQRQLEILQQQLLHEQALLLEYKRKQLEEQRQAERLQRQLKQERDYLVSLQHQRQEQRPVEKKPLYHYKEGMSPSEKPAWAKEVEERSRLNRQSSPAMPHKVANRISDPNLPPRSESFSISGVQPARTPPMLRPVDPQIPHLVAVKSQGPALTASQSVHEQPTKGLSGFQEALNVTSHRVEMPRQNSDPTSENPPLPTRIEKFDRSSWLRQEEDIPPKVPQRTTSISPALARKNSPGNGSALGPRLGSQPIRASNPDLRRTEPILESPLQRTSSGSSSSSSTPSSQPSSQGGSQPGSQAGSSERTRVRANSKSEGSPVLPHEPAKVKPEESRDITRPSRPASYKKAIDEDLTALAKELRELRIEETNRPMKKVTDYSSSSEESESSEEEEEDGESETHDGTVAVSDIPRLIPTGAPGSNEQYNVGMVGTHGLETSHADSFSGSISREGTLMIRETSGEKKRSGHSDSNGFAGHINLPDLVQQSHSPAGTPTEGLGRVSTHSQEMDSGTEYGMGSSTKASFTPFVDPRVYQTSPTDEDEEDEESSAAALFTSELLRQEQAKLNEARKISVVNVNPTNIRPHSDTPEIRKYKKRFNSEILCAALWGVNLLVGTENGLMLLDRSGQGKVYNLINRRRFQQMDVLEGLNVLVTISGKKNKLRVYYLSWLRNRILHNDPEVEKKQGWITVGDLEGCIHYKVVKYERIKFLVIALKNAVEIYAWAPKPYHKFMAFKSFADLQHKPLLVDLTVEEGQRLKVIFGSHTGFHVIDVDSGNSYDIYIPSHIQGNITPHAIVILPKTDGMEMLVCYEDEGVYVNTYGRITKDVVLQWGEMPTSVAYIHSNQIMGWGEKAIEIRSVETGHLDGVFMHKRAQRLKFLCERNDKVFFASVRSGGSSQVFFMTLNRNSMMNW
Protocol: as §1, with “The compounds were studied for function as TNIK inhibitors to generate the data of Table 1. […] (specific” for “(specific”

[1] = TNIK enzymatic assay, Table 1, read-out: IC50

Chain of MAP4K4 (h) (O95819 whole entry): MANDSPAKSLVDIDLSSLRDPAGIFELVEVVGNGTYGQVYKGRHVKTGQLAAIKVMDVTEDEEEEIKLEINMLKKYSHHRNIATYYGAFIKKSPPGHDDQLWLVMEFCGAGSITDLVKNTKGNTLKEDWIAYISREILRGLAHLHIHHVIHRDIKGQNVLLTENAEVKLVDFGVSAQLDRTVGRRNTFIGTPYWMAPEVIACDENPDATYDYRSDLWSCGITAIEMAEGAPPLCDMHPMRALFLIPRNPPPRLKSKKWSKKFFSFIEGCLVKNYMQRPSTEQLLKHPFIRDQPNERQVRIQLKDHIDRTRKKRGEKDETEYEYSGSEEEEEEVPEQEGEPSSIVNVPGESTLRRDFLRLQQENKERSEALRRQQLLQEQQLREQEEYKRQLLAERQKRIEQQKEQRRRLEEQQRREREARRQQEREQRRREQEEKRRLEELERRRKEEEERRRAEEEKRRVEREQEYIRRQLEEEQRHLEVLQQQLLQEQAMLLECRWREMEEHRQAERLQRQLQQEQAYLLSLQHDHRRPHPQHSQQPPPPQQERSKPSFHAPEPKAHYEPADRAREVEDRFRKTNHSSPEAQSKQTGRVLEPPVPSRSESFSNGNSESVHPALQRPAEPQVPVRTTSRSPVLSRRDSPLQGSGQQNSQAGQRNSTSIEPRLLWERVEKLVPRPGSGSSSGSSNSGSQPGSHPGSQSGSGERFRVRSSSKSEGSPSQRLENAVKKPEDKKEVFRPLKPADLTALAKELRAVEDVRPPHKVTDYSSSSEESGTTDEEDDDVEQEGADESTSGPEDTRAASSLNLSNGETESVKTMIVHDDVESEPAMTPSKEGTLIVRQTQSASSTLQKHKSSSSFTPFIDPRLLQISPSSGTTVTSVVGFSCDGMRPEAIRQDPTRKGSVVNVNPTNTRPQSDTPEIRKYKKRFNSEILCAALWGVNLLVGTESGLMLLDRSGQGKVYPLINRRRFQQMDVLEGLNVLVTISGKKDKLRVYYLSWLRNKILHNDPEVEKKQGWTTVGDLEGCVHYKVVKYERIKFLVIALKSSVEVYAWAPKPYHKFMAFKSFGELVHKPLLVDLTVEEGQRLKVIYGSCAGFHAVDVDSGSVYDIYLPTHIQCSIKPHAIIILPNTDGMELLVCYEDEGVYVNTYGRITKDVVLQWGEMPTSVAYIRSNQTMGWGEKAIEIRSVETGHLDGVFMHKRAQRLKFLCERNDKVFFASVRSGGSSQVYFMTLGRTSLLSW

Structure (SMILES) | IC50 (MAP4K4 (h)) | IC50 (TNIK; [1]) | IC50 (TNIK; read-out: TNIK_IC50)
Cc1ccc(C)c(NC(=O)c2ccc(-c3c(-c4ccc(F)cc4)ncn3C3CCCC3)o2)c1 [Compound 31, 5-(1-cyclopentyl-4-(4-fluorophenyl)-1H-imidazol-5-yl)-N-(2,5-dimethylphenyl)furan-2-carboxamide] | 457 nM | 135 nM | 135 nM
Cc1ccc(NC(=O)c2ccc(-c3c(-c4ccc(F)cc4)ncn3C3CCCC3)o2)c(C)c1 [Compound 32, 5-(1-cyclopentyl-4-(4-fluorophenyl)-1H-imidazol-5-yl)-N-(2,4-dimethylphenyl)furan-2-carboxamide] | 96.9 nM | 12 nM | 12 nM
CCOC(=O)c1ccc(NC(=O)c2ccc(-c3c(-c4ccc(F)cc4)ncn3C3CCCC3)o2)cc1 [Compound 33, ethyl 4-(5-(1-cyclopentyl-4-(4-fluorophenyl)-1H-imidazol-5-yl)furan-2-carboxamido)benzoate] | 87.3 nM | 27 nM | 27 nM
Cc1cc(C)c(NC(=O)c2ccc(-c3c(-c4ccc(F)cc4)ncn3C3CCCC3)o2)c(C)c1 [Compound 34, 5-(1-cyclopentyl-4-(4-fluorophenyl)-1H-imidazol-5-yl)-N-mesitylfuran-2-carboxamide] | 240 nM | 319 nM | 319 nM
CC(=O)c1cccc(NC(=O)c2ccc(-c3c(-c4ccc(F)cc4)ncn3C3CCCC3)o2)c1 [Compound 35, N-(3-acetylphenyl)-5-(1-cyclopentyl-4-(4-fluorophenyl)-1H-imidazol-5-yl)furan-2-carboxamide] | 274 nM | 151 nM | 151 nM
CSc1cccc(NC(=O)c2ccc(-c3c(-c4ccc(F)cc4)ncn3C3CCCC3)o2)c1 [Compound 36, 5-(1-cyclopentyl-4-(4-fluorophenyl)-1H-imidazol-5-yl)-N-(3-(methylthio)phenyl)furan-2-carboxamide] | 326 nM | 110 nM | 110 nM
CCc1cccc(C)c1NC(=O)c1ccc(-c2c(-c3ccc(F)cc3)ncn2C2CCCC2)o1 [Compound 37, 5-(1-cyclopentyl-4-(4-fluorophenyl)-1H-imidazol-5-yl)-N-(2-ethyl-6-methylphenyl)furan-2-carboxamide] | > 1000 nM | 900 nM | 900 nM
CC(C)c1ccc(NC(=O)c2ccc(-c3c(-c4ccc(F)cc4)ncn3C3CCCC3)o2)cc1 [Compound 38, 5-(1-cyclopentyl-4-(4-fluorophenyl)-1H-imidazol-5-yl)-N-(4-isopropylphenyl)furan-2-carboxamide] | 168 nM | 46 nM | 46 nM
CCc1cccc(NC(=O)c2ccc(-c3c(-c4ccc(F)cc4)ncn3C3CCCC3)o2)c1 [Compound 39, 5-(1-cyclopentyl-4-(4-fluorophenyl)-1H-imidazol-5-yl)-N-(3-ethylphenyl)furan-2-carboxamide] | > 1000 nM | 480 nM | 480 nM
Cc1ccc(NC(=O)c2ccc(-c3c(-c4ccc(F)cc4)ncn3C3CCCC3)o2)cc1F [Compound 40, 5-(1-cyclopentyl-4-(4-fluorophenyl)-1H-imidazol-5-yl)-N-(3-fluoro-4-methylphenyl)furan-2-carboxamide] | 243 nM | 102 nM | 102 nM
O=C(Nc1ccc(F)c(F)c1)c1ccc(-c2c(-c3ccc(F)cc3)ncn2C2CCCC2)o1 [Compound 41, 5-(1-cyclopentyl-4-(4-fluorophenyl)-1H-imidazol-5-yl)-N-(3,4-difluorophenyl)furan-2-carboxamide] | 639 nM | 180 nM | 180 nM
O=C(Nc1ccc(Cl)cc1F)c1ccc(-c2c(-c3ccc(F)cc3)ncn2C2CCCC2)o1 [Compound 42, N-(4-chloro-2-fluorophenyl)-5-(1-cyclopentyl-4-(4-fluorophenyl)-1H-imidazol-5-yl)furan-2-carboxamide] | 41.3 nM | 19 nM | 19 nM
Cc1cc(F)ccc1NC(=O)c1ccc(-c2c(-c3ccc(F)cc3)ncn2C2CCCC2)o1 [Compound 43, 5-(1-cyclopentyl-4-(4-fluorophenyl)-1H-imidazol-5-yl)-N-(4-fluoro-2-methylphenyl)furan-2-carboxamide] | 139 nM | 172 nM | 172 nM
O=C(Nc1ccc(OC(F)(F)F)cc1)c1ccc(-c2c(-c3ccc(F)cc3)ncn2C2CCCC2)o1 [Compound 44, 5-(1-cyclopentyl-4-(4-fluorophenyl)-1H-imidazol-5-yl)-N-(4-(trifluoromethoxy)phenyl)furan-2-carboxamide] | 610 nM | 523 nM | 523 nM
COc1ccc(NC(=O)c2ccc(-c3c(-c4ccc(F)cc4)ncn3C3CCCC3)o2)cc1Cl [Compound 45, N-(3-chloro-4-methoxyphenyl)-5-(1-cyclopentyl-4-(4-fluorophenyl)-1H-imidazol-5-yl)furan-2-carboxamide] | 165 nM | 165 nM | 165 nM
CC(=O)Nc1ccc(NC(=O)c2ccc(-c3c(-c4ccc(F)cc4)ncn3C3CCCC3)o2)cc1 [Compound 46, N-(4-acetamidophenyl)-5-(1-cyclopentyl-4-(4-fluorophenyl)-1H-imidazol-5-yl)furan-2-carboxamide] | 30.9 nM | 24 nM | 24 nM
Cc1ccc(NC(=O)c2ccc(-c3c(-c4ccc(F)cc4)ncn3C3CCCC3)o2)cc1 [Compound 47, 5-(1-cyclopentyl-4-(4-fluorophenyl)-1H-imidazol-5-yl)-N-(p-tolyl)furan-2-carboxamide] | 51.6 nM | < 10 nM | 43.2 nM
Cc1cccc(NC(=O)c2ccc(-c3c(-c4ccc(F)cc4)ncn3C3CCCC3)o2)c1 [Compound 48, 5-(1-cyclopentyl-4-(4-fluorophenyl)-1H-imidazol-5-yl)-N-(m-tolyl)furan-2-carboxamide] | 163 nM | 40 nM | 40 nM
O=C(Nc1ccc(Br)cc1)c1ccc(-c2c(-c3ccc(F)cc3)ncn2C2CCCC2)o1 [Compound 49, N-(4-bromophenyl)-5-(1-cyclopentyl-4-(4-fluorophenyl)-1H-imidazol-5-yl)furan-2-carboxamide] | 436 nM | 152 nM | 152 nM
COc1ccccc1NC(=O)c1ccc(-c2c(-c3ccc(F)cc3)ncn2C2CCCC2)o1 [Compound 50, 5-(1-cyclopentyl-4-(4-fluorophenyl)-1H-imidazol-5-yl)-N-(2-methoxyphenyl)furan-2-carboxamide] | 4.46 nM | < 10 nM | 3.86 nM
CC(=O)c1ccc(NC(=O)c2ccc(-c3c(-c4ccc(F)cc4)ncn3C3CCCCC3)o2)cc1 [Compound 51, N-(4-acetylphenyl)-5-(1-cyclohexyl-4-(4-fluorophenyl)-1H-imidazol-5-yl)furan-2-carboxamide] | 126 nM | 57 nM | 57 nM
COc1ccc(NC(=O)c2ccc(-c3c(-c4ccc(F)cc4)ncn3C3CCCCC3)o2)cc1OC [Compound 52, 5-(1-cyclohexyl-4-(4-fluorophenyl)-1H-imidazol-5-yl)-N-(3,4-dimethoxyphenyl)furan-2-carboxamide] | 104 nM | 60 nM | 60 nM
COc1cccc(NC(=O)c2ccc(-c3c(-c4ccc(F)cc4)ncn3C3CCCCC3)o2)c1 [Compound 53, 5-(1-cyclohexyl-4-(4-fluorophenyl)-1H-imidazol-5-yl)-N-(3-methoxyphenyl)furan-2-carboxamide] | 244 nM | 138 nM | 138 nM
COc1ccc(NC(=O)c2ccc(-c3c(-c4ccc(F)cc4)ncn3C3CCCCC3)o2)cc1 [Compound 54, 5-(1-cyclohexyl-4-(4-fluorophenyl)-1H-imidazol-5-yl)-N-(4-methoxyphenyl)furan-2-carboxamide] | 107 nM | 60 nM | 60 nM
O=C(Nc1ccccc1Cl)c1ccc(-c2c(-c3ccc(F)cc3)ncn2C2CCCCC2)o1 [Compound 55, N-(2-chlorophenyl)-5-(1-cyclohexyl-4-(4-fluorophenyl)-1H-imidazol-5-yl)furan-2-carboxamide] | 43.4 nM | 24 nM | 24 nM
O=C(Nc1ccc(Cl)cc1)c1ccc(-c2c(-c3ccc(F)cc3)ncn2C2CCCCC2)o1 [Compound 56, N-(4-chlorophenyl)-5-(1-cyclohexyl-4-(4-fluorophenyl)-1H-imidazol-5-yl)furan-2-carboxamide] | 195 nM | 99 nM | 99 nM
O=C(Nc1ccc(F)cc1F)c1ccc(-c2c(-c3ccc(F)cc3)ncn2C2CCCCC2)o1 [Compound 57, 5-(1-cyclohexyl-4-(4-fluorophenyl)-1H-imidazol-5-yl)-N-(2,4-difluorophenyl)furan-2-carboxamide] | 111 nM | 38 nM | 38 nM
COc1cc(NC(=O)c2ccc(-c3c(-c4ccc(F)cc4)ncn3C3CCCCC3)o2)cc(OC)c1 [Compound 58, 5-(1-cyclohexyl-4-(4-fluorophenyl)-1H-imidazol-5-yl)-N-(3,5-dimethoxyphenyl)furan-2-carboxamide] | 581 nM | 275 nM | 275 nM
Cc1cccc(NC(=O)c2ccc(-c3c(-c4ccc(F)cc4)ncn3C3CCCCC3)o2)c1C [Compound 59, 5-(1-cyclohexyl-4-(4-fluorophenyl)-1H-imidazol-5-yl)-N-(2,3-dimethylphenyl)furan-2-carboxamide] | > 1000 nM | 562 nM | 562 nM
